Bridge positions count the residues as written; N and C are the ends. Square brackets hold non-standard residues; d marks the D form. Peptide text beside a SMILES is read from it.
Key:
perfused rat pancreas = experiment: Rat pancreas perfusion, somatostatin output; design: species or system rat (Wistar); conditions: 0.1 nM, 1 nM and 10 nM, […] glucose, n = 10 rats
Description: Non-fasted rats were anesthetized by a subcutaneous injection of a balanced mix of hypnorm and midazolam (0.3 mL/100 g body weight). Rats were placed on a heated operating table (37 °C) and the abdomen were opened. Blood vessels were tied off before removing the large and small intestines, the stomach, and the spleen. Then, the kidneys were ligated. […] The perfusion buffer was a modified Krebs-Ringer bicarbonate buffer with 5% (w/v) dextran T-70 (Pharmacosmos, Holbaek, Denmark), 0.1% (w/v) BSA (fraction V), 3.5 mM glucose and 3 mM vamin (Fresenius Kabi, Copenhagen, Denmark), pH adjusted to 7.4. […] Once perfusion of the pancreas was established, a catheter was inserted in the vena portae to collect the venous effluent and the rat was sacrificed by perforation of the diaphragm. After a 30-minute equilibration period, samples were collected every minute for the duration of the protocol. […] Glucagon, insulin, and somatostatin concentrations in venous effluents were quantified by use of validated in-house radioimmunoassays (RIA) as previously described[36] […]
Glucagon concentration in perfusion samples were measured by a validated in-house RIAs using the 4305 antibody, which reacts with the C-terminal epitope of glucagon[36] and no other cleavage products of pro-glucagon. Insulin concentrations were measured with the 2006 antibody, which measures all isoforms of rat insulin. […]

[1] = Solubility in aqueous solutions (observation); conditions: comparison of des-glyco nG1, pG1 and venom fraction
human SSTR2 (Gi2) = molecular target: T1, human SSTR2 (Gi2) (Homo sapiens, UniProt P30874); experiment: G protein activation (BRET dissociation) assay, Gi2 at hSSTR2; format: cell-based;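 on Emax ± S.E.M.: percent of the maximal response to the reference somatostatin agonist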
T1 construct: host or cells: HEK293T cells
T1 sequence (P30874 whole entry): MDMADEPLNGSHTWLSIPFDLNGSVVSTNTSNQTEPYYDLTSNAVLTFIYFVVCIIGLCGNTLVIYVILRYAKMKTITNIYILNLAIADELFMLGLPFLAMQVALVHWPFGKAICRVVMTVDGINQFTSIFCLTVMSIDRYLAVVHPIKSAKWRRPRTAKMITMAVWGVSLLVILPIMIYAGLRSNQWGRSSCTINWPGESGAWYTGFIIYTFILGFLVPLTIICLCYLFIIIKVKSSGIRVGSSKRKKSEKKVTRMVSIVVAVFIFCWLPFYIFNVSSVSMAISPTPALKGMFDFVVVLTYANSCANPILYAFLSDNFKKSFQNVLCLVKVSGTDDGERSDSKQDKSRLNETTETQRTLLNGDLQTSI
Description: (§1) HEK293T cells were seeded onto 6-well plates at a density of 750,000 cells/well. […] 16 to 24 hours post-transfection, HEK293T cells were seeded onto white 96 well plate (PerkinElmer) coated with poly-L-lysine (PLL) at a density of 40,000 cells/well and were allowed to grow overnight. On the day of assay, cells were washed once with phosphate-based saline (PBS) and 80 µL of assay buffer which composed of PBS with 0.5 mM MgCl2 and 0.1% glucose, pH 7.4, were added onto each well. 10 µL of Nluc luciferase substrate furimazine (Promega) were added onto each well and incubated for 3 minutes.
(§2) The net BRET ratio was determined by subtracting the BRET ratio of drugs with the BRET ratio of vehicle control. Net BRET ratio over time was then plotted using GraphPad Prism (v.9.4.1), and the area-under-curve of net BRET ratio over time course for each ligand concentration tested were then determined and plotted against log(concentration) of drugs tested. […] Concentration response curves were fitted with a 4-parameter logistic Eq. (1) using GraphPad Prism (v.9.4.1):1 Y=Emin+(Emax−Emin)/1+10^logEC50−X×Hillslope

human SSTR2 (GoA) = human SSTR2 (GoA) (Homo sapiens, UniProt P30874); experiment: G protein activation (BRET dissociation) assay, GoA at hSSTR2;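 on Emax: percent of the maximal response to the reference somatostatin agonist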
Chain of human SSTR2 (GoA) (P30874 whole entry): as above
Description: as §1, §2

human SSTR2 (Gi1) = molecular target: T2, human SSTR2 (Gi1) (Homo sapiens, UniProt P30874); experiment: G protein activation (BRET dissociation) assay, Gi1 at hSSTR2; format: cell-based;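 on Emax ± S.E.M.: percent of the maximal response to the reference somatostatin agonist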
T2 construct: host or cells: HEK293T cells
T2 sequence (P30874 whole entry): as above
Description: as §1, §2

Dr-sstr2b = experiment: PRESTO-Tango β-arrestin recruitment assay, Dr-sstr2b; format: cell-based, zebrafish (Danio rerio); conditions: for pEC50: Dr-sstr2b, Fig. S15D
Description: 3xHA-tagged human SSTR2 construct was obtained from cDNA.org (cDNA resource center, Bloomsburg PA, US). […] Kirill Martemyanov (University of Florida, US). Tango constructs for human SSTR1-5 were kind gifts from Prof. Bryan Roth (University of North Carolina, Chapel Hill, US) (Addgene kit # 1000000068). Tango constructs for fish Dr-sstr2a (sequence accession number: XP_005170178.1) and Dr-sstr2b (sequence accession number: XP_017210358.1) were custom-synthesized by Twist Biosciences using the Tango construct template as described in Kroeze et al., 2015[28]. 3xHA-tagged Dr-sstr2a and 3xHA tagged Dr-sstr2b constructs were inserted into pcDNA3.1 backbone. All DNA constructs were sequenced and confirmed prior to use.
The assay was done as described in ref. [12].

**Q.** With `CC(C)C[C@H](N)C(=O)N[C@@H](Cc1ccccc1)C(=O)N[C@H]1CSSC[C@@H](C(=O)N[C@@H](Cc2c[nH]c3ccccc23)C(=O)O)NC(=O)[C@H](CO)NC(=O)[C@H](CCCCN)NC(=O)[C@@H](Cc2c[nH]c3ccccc23)NC(=O)[C@H](Cc2ccccc2)NC1=O` [pG1] (H-LFCF[dW]KSCW-OH; disulfide 3-8) as the molecule, how does the “effect on somatostatin secretion” value (perfused rat pancreas) read?
**A.** did not affect insulin and somatostatin output at low glucose (3.5 mM)

**Q.** What about the “effect on somatostatin secretion” value (perfused rat pancreas; listed as Consomatin pG1) of the same molecule?
**A.** no effect on somatostatin or insulin secretion in 3.5 mM glucose

**Q.** What about the “solubility in aqueous solutions in words” value [1] of the same molecule?
**A.** did not observe any obvious differences in the solubility

**Q.** What about the Emax (human SSTR2 (Gi2)) of the same molecule?
**A.** 91 ± 4.6%

**Q.** What about the “Hill Slope” value (human SSTR2 (Gi2); Table S2, Gαi2) of the same molecule?
**A.** 1.11 ± 0.22

**Q.** And the “Span ± S.E.M.” value (human SSTR2 (Gi2); Table S2, Gαi2)?
**A.** 83.42 ± 5.67

**Q.** And the EC50 (human SSTR2 (Gi2); Table S2, Gαi2, HEK293T, means ± S.E.M.)?
**A.** 1.35 nM

**Q.** What about the EC50 (human SSTR2 (GoA)) of the same molecule?
**A.** 5.13 nM

**Q.** And the “Hill Slope” value (human SSTR2 (GoA); Table S2, GαoA)?
**A.** 1.04 ± 0.25

**Q.** What about the “Span ± S.E.M.” value (human SSTR2 (GoA); Table S2, GαoA) of the same molecule?
**A.** 97.45 ± 6.80

**Q.** What about the “GoA activation/dissociation in words” value (human SSTR2 (GoA); hSSTR2, HEK293T cells) of the same molecule?
**A.** most potent at dissociating GoA protein among all Gi/o proteins tested

**Q.** And the Emax (human SSTR2 (GoA); read-out: Emax ± S.E.M.)?
**A.** 97.9 ± 4.11%

**Q.** And the Emax (human SSTR2 (Gi1))?
**A.** 95.6 ± 8.52%

**Q.** And the “Hill Slope” value (human SSTR2 (Gi1); Table S2, Gαi1)?
**A.** 0.81 ± 0.28

**Q.** And the “Span ± S.E.M.” value (human SSTR2 (Gi1); Table S2, Gαi1)?
**A.** 87.89 ± 11.1

**Q.** What about the EC50 (human SSTR2 (Gi1); Table S2, Gαi1, HEK293T, means ± S.E.M.) of the same molecule?
**A.** 6.46 nM

**Q.** What about the pEC50 (Dr-sstr2b; replicate 1) of the same molecule?
**A.** 7.529

**Q.** And the pEC50 (Dr-sstr2b; replicate 2)?
**A.** 7.491

**Q.** And the pEC50 (Dr-sstr2b; replicate 3)?
**A.** 7.611

**Q.** What about the pEC50 (Dr-sstr2b; replicate 4) of the same molecule?
**A.** 7.82

**Q.** And the “activation of Dr-sstr2b in words” value (Dr-sstr2b; PRESTO-Tango, HTLA cells)?
**A.** activates the zebrafish Dr-sstr2b (n = 3) but not Dr-sstr2a

**Q.** And the “Hill Slope” value (Dr-sstr2b; Table S4)?
**A.** 0.90 ± 0.13

**Q.** What about the “Span ± S.E.M.” value (Dr-sstr2b; Table S4) of the same molecule?
**A.** 82.46 ± 4.04

**Q.** What about the EC50 (Dr-sstr2b; Table S4, HTLA cells) of the same molecule?
**A.** 25.3 nM

**Q.** What about the “Emax ± S.E.M.” value (Dr-sstr2b; Table S4, relative to SS-14) of the same molecule?
**A.** 83.12 ± 3.13
